Measurements: US20070087988A1, “Hematopoietic progenitor kinase 1 for modulation of an immune response” (New York University, priority 2005, published 2007)

How the values were obtained:
[1] = test system: HPK1; experiment: HPK1 immune complex in vitro kinase (IVK) assay, endogenous HPK1 from treated Jurkat cells; type: cell-based, human; conditions: for PGE2-induced HPK1 activity: Jurkat cells pretreated with 10 μM H-89, then PGE2; for HPK1 kinase activity (IVK) after phosphatase inhibitor: Jurkat cells, 10 min at 37° C., 100 nM calyculin A, 10 nM okadaic acid, 2 μg/ml cyclosporine A, 10 nM pervanadate
[2] = biological target: HA-tagged murine HPK1 point mutant S171A (UniProt P70218)
[3] = biological target: HA-tagged murine HPK1 point mutant R169K (UniProt P70218)
[4] = biological target: HA-tagged murine HPK1 point mutant R168K (UniProt P70218)

## O=S(=O)(NCCNC/C=C/c1ccc(Br)cc1)c1cccc2cnccc12 [H-89]
[1]
  PGE2-induced HPK1 activity: blocked
[1]; listed as H89
  PGE2-induced HPK1 activity: blocks PGE2-induced HPK1 activation

## COC[C@@H]([C@H](O)[C@H](O)C(=O)NCC[C@H](C)c1nc(/C=C/C[C@@H]2O[C@]3(C[C@@H](O)[C@@H]2C)O[C@H]([C@H](C[C@H](O)[C@H](C)[C@H](O)[C@H](C)/C=C(C)/C(C)=C/C=C/C(C)=C\C#N)OC)[C@H](OP(=O)(O)O)C3(C)C)co1)N(C)C [calyculin A]
[1]
  HPK1 kinase activity (IVK) after phosphatase inhibitor: activated HPK1 kinase activity

## cAMP-dependent protein kinase A (PKA), endogenous in Jurkat T cells
[2]
  HPK1 kinase activity (IVK assay) in response to PGE2 stimulation: mutation of serine 171 ablated the response of HPK1 to PGE2 stimulation signals
[3]
  HPK1 kinase activity (IVK assay) in response to PGE2 stimulation: Arginine to lysine mutations at either residue 168 or 169 of HPK1 reduced the responsiveness to PGE2 stimulation by approximately 90%
[4]
  HPK1 kinase activity (IVK assay) in response to PGE2 stimulation: Arginine to lysine mutations at either residue 168 or 169 of HPK1 reduced the responsiveness to PGE2 stimulation by approximately 90%

## pervanadate
[1]
  HPK1 kinase activity (IVK) after phosphatase inhibitor: induced a response in HPK1 catalytic activity

## cholera toxin
[1]
  HPK1 kinase activity (IVK) after PKA activator: robustly induced HPK1 kinase activity

## C=C1[C@@H](O)[C@@H]2O[C@]3(CC[C@H](/C=C/[C@@H](C)[C@@H]4CC(C)=C[C@@]5(O[C@H](C[C@@](C)(O)C(=O)O)CC[C@H]5O)O4)O3)CC[C@H]2O[C@@H]1[C@@H](O)C[C@H](C)[C@H]1O[C@@]2(CCCCO2)CC[C@H]1C [okadaic acid]
[1]
  HPK1 kinase activity (IVK) after phosphatase inhibitor: activated HPK1 kinase activity
